Laboratory results reported in PubChem BioAssay AID248 (DTP/NCI, 2004).
Where “and” joins values, the source holds several entries; their conditions need not be identical. Equal entries are not always repeated. Toxic doses and inconclusive results are not listed. No stated cut-off is given here; in the data, active means T/C of 150% or more; inactive means T/C below 125%.

System: L1210 leukemia ip in BDF1 mice, survival T/C
Assay: NCI In Vivo Anticancer Drug Screen. Data for tumor model L1210 Leukemia (intraperitoneal) in B6D2F1 (BDF1) mice
Settings: endpoint: mean survival time, higher = longer survival
Procedure, shortened: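 Ratio derived from survival: compound-dosed mice over vehicle-dosed mice, all bearing a transplantable tumor.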

[1] = dose: 100.0 mg/kg/injection, schedule: Q01DX009 (ip), vehicle: Klucel (hydroxypropylcellulose) (HPC)
[2] = dose: 100.0 mg/kg/injection, schedule: Q04DX003 (ip), vehicle: Klucel (hydroxypropylcellulose) (HPC)
[3] = dose: 200.0 mg/kg/injection, schedule: Q01DX009 (ip), vehicle: Klucel (hydroxypropylcellulose) (HPC)
[4] = dose: 200.0 mg/kg/injection, schedule: Q04DX003 (ip), vehicle: Klucel (hydroxypropylcellulose) (HPC)
[5] = dose: 400.0 mg/kg/injection, schedule: Q04DX003 (ip), vehicle: Klucel (hydroxypropylcellulose) (HPC)
[6] = dose: 100.0 mg/kg/injection, schedule: Q01DX001 (ip), vehicle: saline

Measured: T/C

CCOC(=O)CC[P+](c1ccccc1)(c1ccccc1)c1ccccc1
inactive: dose: 75.0 mg/kg/injection, schedule: Q01DX001 (ip), vehicle: saline 103 % of control | dose: 75.0 mg/kg/injection, schedule: Q04DX003 (ip), vehicle: saline 106 % of control | dose: 150.0 mg/kg/injection, schedule: Q01DX001 (ip), vehicle: saline 109 % of control | dose: 150.0 mg/kg/injection, schedule: Q04DX003 (ip), vehicle: saline 105 % of control | dose: 300.0 mg/kg/injection, schedule: Q01DX001 (ip), vehicle: saline 101 % of control | dose: 300.0 mg/kg/injection, schedule: Q04DX003 (ip), vehicle: saline 107 % of control

Cc1cc(C)n(CO)n1
inactive: [1] 107 % of control | [2] 100 % of control | [3] 108 % of control | [4] 110 % of control | [5] 112 % of control

O=c1[nH]cnc2c1nnn2C1CC(O)C(CO)O1 (stereo not drawn)
inactive: dose: 50.0 mg/kg/injection, schedule: Q01DX001 (ip), vehicle: saline 106 % of control | [6] 116 % of control | dose: 100.0 mg/kg/injection, schedule: Q04DX003 (ip), vehicle: saline 100 % of control | dose: 200.0 mg/kg/injection, schedule: Q04DX003 (ip), vehicle: saline 103 % of control | dose: 400.0 mg/kg/injection, schedule: Q04DX003 (ip), vehicle: saline 111 % of control

CCCC(C(=O)O)(c1ccccc1)c1ccccc1
inactive: dose: 100.0 mg/kg/injection, schedule: Q04DX002 (ip), vehicle: gum acacia 96 % of control | dose: 200.0 mg/kg/injection, schedule: Q04DX002 (ip), vehicle: gum acacia 104 % of control

CN(C=O)c1ccccc1C(=O)O
inactive: dose: 100.0 mg/kg/injection, schedule: Q04DX003 (ip), vehicle: saline with Tween-80 97 % of control | dose: 200.0 mg/kg/injection, schedule: Q04DX003 (ip), vehicle: saline with Tween-80 97 % of control | dose: 400.0 mg/kg/injection, schedule: Q04DX003 (ip), vehicle: saline with Tween-80 100 % of control

O=C(Cn1ccc(=O)[nH]c1=O)Nc1ccc(O)c(C(=O)O)c1
inactive: dose: 50.0 mg/kg/injection, schedule: Q04DX003 (ip), vehicle: Klucel (hydroxypropylcellulose) (HPC) 100 % of control | [2] 107 % of control | [4] 100 % of control

O=C(CCl)N1CCC(CC2(c3cc4ccccc4[nH]3)OCCO2)CC1
inactive: dose: 100.0 mg/kg/injection, schedule: Q04DX002 (ip), vehicle: other 97 % of control | dose: 200.0 mg/kg/injection, schedule: Q04DX002 (ip), vehicle: other 90 % of control | dose: 400.0 mg/kg/injection, schedule: Q04DX002 (ip), vehicle: other 94 % of control

CC1OC2COC(C)OC2C(C(O)COC(c2ccccc2)(c2ccccc2)c2ccccc2)O1 (stereo not drawn)
inactive: [1] 93 % of control | [2] 98 % of control | [3] 95 % of control | [4] 97 % of control | dose: 400.0 mg/kg/injection, schedule: Q01DX009 (ip), vehicle: Klucel (hydroxypropylcellulose) (HPC) 101 % of control | [5] 95 % of control

C[C@@H]1C[C@@]2(C)C(=CC1=O)CC[C@@H]1C2=CC[C@@]2(C)[C@H]1CC[C@]2(C)O
inactive: dose: 100.0 mg/kg/injection, schedule: Q01DX009 (ip), vehicle: saline 100 % of control | dose: 100.0 mg/kg/injection, schedule: Q04DX003 (ip), vehicle: alcohol 103 % of control | dose: 200.0 mg/kg/injection, schedule: Q01DX009 (ip), vehicle: saline 100 % of control | dose: 200.0 mg/kg/injection, schedule: Q04DX003 (ip), vehicle: alcohol 103 % of control | dose: 400.0 mg/kg/injection, schedule: Q01DX009 (ip), vehicle: saline 100 % of control | dose: 400.0 mg/kg/injection, schedule: Q04DX003 (ip), vehicle: alcohol 97 % of control

NC(CSS(=O)(=O)O)=NCc1cccnc1
inactive: dose: 100.0 mg/kg/injection, schedule: Q04DX002 (ip), vehicle: Klucel (hydroxypropylcellulose) (HPC) 89 % of control | dose: 200.0 mg/kg/injection, schedule: Q04DX002 (ip), vehicle: Klucel (hydroxypropylcellulose) (HPC) 105 % of control

O=S1(=O)C=CC(Br)C1 (stereo not drawn)
inactive: dose: 100.0 mg/kg/injection, schedule: Q01DX001 (ip), vehicle: saline with Tween-80 100 % of control | dose: 200.0 mg/kg/injection, schedule: Q01DX001 (ip), vehicle: saline with Tween-80 101 % of control

CC(=O)OC1C2OC3C=C(C)CCC3(CO)C(C)(C1OC(C)=O)C21CO1 (stereo not drawn)
inactive: dose: 0.8 mg/kg/injection, schedule: Q01DX009 (ip), vehicle: other 107 % of control | dose: 1.6 mg/kg/injection, schedule: Q01DX009 (ip), vehicle: other 111 % of control | dose: 6.4 mg/kg/injection, schedule: Q01DX009 (ip), vehicle: other 95 % of control

CC(c1ccccc1)n1cnc2c(N(CCO)CCO)ncnc21 (stereo not drawn)
inactive: [6] 117 % of control | dose: 200.0 mg/kg/injection, schedule: Q01DX001 (ip), vehicle: saline 104 % of control | dose: 400.0 mg/kg/injection, schedule: Q01DX001 (ip), vehicle: saline 101 % of control

NCCc1ccc(NC(=O)c2ccc(C(=O)Nc3ccc(CCN)cc3)c([N+](=O)[O-])c2)cc1
inactive: dose: 1.56 mg/kg/injection, schedule: Q01DX015 (ip), vehicle: methylcellulose (MC) 94 % of control | dose: 3.12 mg/kg/injection, schedule: Q01DX015 (ip), vehicle: methylcellulose (MC) 94 % of control | dose: 6.25 mg/kg/injection, schedule: Q01DX015 (ip), vehicle: methylcellulose (MC) 94 % of control | dose: 12.5 mg/kg/injection, schedule: Q01DX015 (ip), vehicle: methylcellulose (MC) 98 % of control and 92 % of control | dose: 25.0 mg/kg/injection, schedule: Q01DX015 (ip), vehicle: methylcellulose (MC) 104 % of control

CC[n+]1ccc(Cc2ccc([N+](=O)[O-])cc2)cc1
inactive: dose: 25.0 mg/kg/injection, schedule: Q01DX009 (ip), vehicle: Klucel (hydroxypropylcellulose) (HPC) 102 % of control | dose: 50.0 mg/kg/injection, schedule: Q01DX009 (ip), vehicle: Klucel (hydroxypropylcellulose) (HPC) 95 % of control | [1] 100 % of control

C1CCC2(CC1)SC1(CCCCC1)SC1(CCCCC1)S2
inactive: dose: 100.0 mg/kg/injection, schedule: Q01DX009 (ip), vehicle: other 94 % of control | dose: 100.0 mg/kg/injection, schedule: Q04DX003 (ip), vehicle: other 95 % of control | dose: 200.0 mg/kg/injection, schedule: Q01DX009 (ip), vehicle: other 95 % of control | dose: 200.0 mg/kg/injection, schedule: Q04DX003 (ip), vehicle: other 97 % of control | dose: 400.0 mg/kg/injection, schedule: Q01DX009 (ip), vehicle: other 92 % of control | dose: 400.0 mg/kg/injection, schedule: Q04DX003 (ip), vehicle: other 97 % of control

O=c1[nH]cn[nH]1
inactive: dose: 100.0 mg/kg/injection, schedule: Q04DX003 (ip), vehicle: saline sonified 105 % of control | dose: 200.0 mg/kg/injection, schedule: Q04DX003 (ip), vehicle: saline sonified 114 % of control | dose: 400.0 mg/kg/injection, schedule: Q04DX003 (ip), vehicle: saline sonified 101 % of control

[O-]/[N+](=N/O)c1ccccc1
inactive: [6] 92 % of control

CC(=O)Nc1cccc2c1CCCC2
inactive: dose: 100.0 mg/kg/injection, schedule: Q01DX009 (ip), vehicle: gum acacia 98 % of control | dose: 100.0 mg/kg/injection, schedule: Q04DX003 (ip), vehicle: gum acacia 95 % of control | dose: 200.0 mg/kg/injection, schedule: Q01DX009 (ip), vehicle: gum acacia 97 % of control | dose: 200.0 mg/kg/injection, schedule: Q04DX003 (ip), vehicle: gum acacia 96 % of control | dose: 400.0 mg/kg/injection, schedule: Q01DX009 (ip), vehicle: gum acacia 103 % of control | dose: 400.0 mg/kg/injection, schedule: Q04DX003 (ip), vehicle: gum acacia 95 % of control
